Reference: patent publication US20250241891A1, “TREATMENT OF ANXIETY” (GH RESEARCH IRELAND LIMITED, priority 2022, published 2025)

Tested on: patients with postpartum depression (PPD)
Assay: Clinical trial of inhaled 5-MeO-DMT in postpartum depression (MADRS, BPRS, BIMF, PES, safety)
Description: The single-arm, open-label clinical trial will involve 15 adult female patients with clinically diagnosed postpartum depression (PPD).
The second dose (12 mg) will only be administered if: • a. […] The 6 mg dose was safe and well-tolerated according to the investigator, • c. Any psychoactive effects (PsE) of the prior dose have subsided, and • d. Pre-dose vital parameters and forced expiratory volume in one second (FEV1) are in normal range, or if outside of the normal range, are not clinically significant according to the investigator. • 3. Similarly, a third dose (18 mg) will only be administered if: • a. […] The 12 mg dose was safe and well-tolerated according to the investigator, and • c. Any PsE of the prior dose have subsided, and • d. Pre-dose vital parameters and forced expiratory volume in one second (FEV1) are in normal range, or if outside of the normal range, are not clinically significant according to the investigator.
The patients will be assessed for a peak psychedelic experience (based on a patient-scored visual analogue scale, the PE scale), sedation, and other endpoints after dosing. Follow-up visits are planned for Day 1, and Day 7 after the dosing day.
The following criteria must be met by all patients considered for clinical trial participation: • 1. Is female and in the age range between 18 and 45 years (inclusive) at screening. • 2. Has a body mass index (BMI) in the range of 18.5 and 35 kg/m^2 (inclusive) at screening. • 3. Meets the trial criteria for PPD as assessed by a trial psychiatrist or registered psychologist: • a. Diagnosis of Major Depressive Disorder without psychotic features, confirmed by the Mini-International Neuropsychiatric Interview (MINI), with peri-partum onset that began no earlier than gestation and no later than the first 4 weeks postpartum. • b. Has a Montgomery-Åsberg Depression Rating Scale (MADRS) total score of equal to or greater than 28 at screening and pre-dose on Day 0. • 6. […] Patients must have a negative pregnancy test at screening and on the pre-test day (Day −1). • 5. Is willing to delay start of other antidepressant or anxiety medication until after the end of the trial at Day 7 and agrees to keep any psychotherapy unchanged during the trial.
A potential patient who meets any of the following key exclusion criteria will be excluded from participation in this trial: • 1. Has, based on history, psychiatric assessment, and evaluation of the MINI, a current or prior diagnosis of bipolar disorder, a manic or hypomanic episode, a psychotic disorder, Major Depressive Disorder (MDD) or other mood disorder with psychotic features, obsessive compulsive disorder, post-traumatic stress disorder (PTSD), autism spectrum disorder, borderline personality disorder, schizophrenia, delusional disorder, paranoid personality disorder, schizoaffective disorder, clinically significant intellectual disability, or any other psychiatric comorbidity that renders the patient unsuitable for the trial according to the investigator's judgment. • 2. Has one or more first or second degree relatives with a current or previously diagnosed bipolar disorder, psychotic disorder or other mood disorder (including MDD) with psychotic features. • 3. Is in the judgement of a trial psychiatrist or registered psychologist, at significant risk for suicide based on history, psychiatric assessment, and evaluation of suicidal ideation and suicidal behaviour based on the Columbia-Suicide Severity Rating Scale (C-SSRS). • 4. Has taken anti-depressive medication within 14 days or 5 half-lives (whichever is longer) prior to dosing (exception: within the last 5 weeks in the case of fluoxetine). • 5.

[1] = PPD n=1, IDR 6+12 mg inhaled, 2 hr, baseline 0
[2] = PPD n=1, IDR 6+12 mg inhaled, 2 hr, baseline 3
[3] = PPD n=1, IDR 6+12 mg inhaled, 2 hr, baseline 4
[4] = PPD n=1, IDR 6+12 mg inhaled, 2 hr, baseline 5
[5] = PPD n=1, IDR 6+12 mg inhaled, Day 7, Day 0 score 5
[6] = PPD n=1, IDR 6+12 mg inhaled, Day 7, Day 0 score 6
[7] = PPD n=1, IDR 6+12 mg inhaled, Day 7 vs Day 0
[8] = PPD n=1, IDR 6+12 mg inhaled, day 1, baseline 0
[9] = PPD n=1, IDR 6+12 mg inhaled, day 1, baseline 1
[10] = PPD n=1, IDR 6+12 mg inhaled, day 1, baseline 2
[11] = PPD n=1, IDR 6+12 mg inhaled, day 1, baseline 3
[12] = PPD n=1, IDR 6+12 mg inhaled, day 1, baseline 4
[13] = PPD n=1, IDR 6+12 mg inhaled, day 1, baseline 5

## COc1ccc2[nH]cc(CCN(C)C)c2c1 [5-MeO-DMT]
PPD n=1
  tolerability of the inhalation procedure: well tolerated with no inhalation-related adverse events
PPD n=1, IDR 6+12 mg inhaled
  MADRS remission criteria (MADRS total score equal or less than 10): fulfilled
  MADRS response criteria (at least 50% improvement from baseline): fulfilled
  reported adverse events (cramping left abdominal pain and headache, Day 0): mild, short-lasting and resolved spontaneously
  time to clinical response after administration: ≤ 2 h
PPD n=1, IDR 6+12 mg inhaled given on one day
  durability of clinical response: sustained over the 7-day follow-up period
[1]
  MADRS Concentration Difficulties improvement: 0
  MADRS Concentration Difficulties score: 0
  MADRS Reduced appetite improvement: 0
  MADRS Reduced appetite score: 0
  MADRS Suicidal Thoughts improvement: 0
  MADRS Suicidal Thoughts score: 0
[2]
  MADRS Inability to Feel improvement: 3
  MADRS Inability to Feel score: 0
  MADRS Lassitude improvement: 3
  MADRS Lassitude score: 0
[3]
  MADRS Pessimistic Thoughts improvement: 4
  MADRS Pessimistic Thoughts score: 0
  MADRS Reported sadness improvement: 4
  MADRS Reported sadness score: 0
[4]
  MADRS Apparent sadness improvement: 5
  MADRS Apparent sadness score: 0
  MADRS Inner Tension improvement: 5
  MADRS Inner Tension score: 0
  MADRS Reduced Sleep improvement: 0
  MADRS Reduced Sleep score: 5
PPD n=1, IDR 6+12 mg inhaled, Day 7, Day 0 score 2
  BIMF item 18 score: Anxiety or worry often interferes with my mothering ability: 5
PPD n=1, IDR 6+12 mg inhaled, Day 7, Day 0 score 3
  BIMF item 16 score: I worry about how other people judge me (as a mother): 5
PPD n=1, IDR 6+12 mg inhaled, Day 7, Day 0 score 4
  BIMF item 13 score: I am taking good care of my physical needs (eating, showering, etc): 5
[5]
  BIMF item 10 score: I trust my own feelings (instincts) when it comes to taking care of my baby: 6
  BIMF item 17 score: I am able to take care of my baby and my other responsibilities: 5
[6]
  BIMF item 3 score: I am comfortable with the way I've chosen to feed my baby (either bottle or breast, or both): 6
  BIMF item 6 score: There are people in my life that I can trust to care for my baby when I need a break: 6
  BIMF item 12 score: I am taking good care of my baby's physical needs (feedings, changing diapers, doctor's appointments): 6
  BIMF item 14 score: I make good decisions about my baby's health and well being: 6
[7]
  BIMF functional domain Adjustment Δ (Day 7): 1
  BIMF functional domain Infant Care Δ (Day 7): 0
  BIMF functional domain Management Δ (Day 7): 5
  BIMF functional domain Mother-Child Interaction Δ (Day 7): 2
  BIMF functional domain Psychological Well-being Δ (Day 7): 9
  BIMF functional domain Self Care Δ (Day 7): 4
  BIMF functional domain Social Support Δ (Day 7): 1
  BIMF item 1 Δ (Day 7): I am a good mother: 0
  BIMF item 2 Δ (Day 7): I feel rested: 2
  BIMF item 3 Δ (Day 7): I am comfortable with the way I've chosen to feed my baby (either bottle or breast, or both): 0
  BIMF item 4 Δ (Day 7): My baby and I understand each other: 0
  BIMF item 5 Δ (Day 7): I am able to relax and enjoy time with my baby: 1
  BIMF item 6 Δ (Day 7): There are people in my life that I can trust to care for my baby when I need a break: 0
  BIMF item 8 Δ (Day 7): I am getting enough adult interaction: 0
  BIMF item 9 Δ (Day 7): I am getting enough encouragement from other people: 1
  BIMF item 10 Δ (Day 7): I trust my own feelings (instincts) when it comes to taking care of my baby: 1
  BIMF item 11 Δ (Day 7): I take a little time each week to do something for myself: 1
  BIMF item 12 Δ (Day 7): I am taking good care of my baby's physical needs (feedings, changing diapers, doctor's appointments): 0
  BIMF item 13 Δ (Day 7): I am taking good care of my physical needs (eating, showering, etc): 1
  BIMF item 14 Δ (Day 7): I make good decisions about my baby's health and well being: 0
  BIMF item 15 Δ (Day 7): My baby and I are getting into a routine: 1
  BIMF item 16 Δ (Day 7): I worry about how other people judge me (as a mother): 2
  BIMF item 17 Δ (Day 7): I am able to take care of my baby and my other responsibilities: 0
  BIMF item 18 Δ (Day 7): Anxiety or worry often interferes with my mothering ability: 3
  BIMF item 19 Δ (Day 7): As time goes on, I am getting better at taking care of my baby: 1
  BIMF item 20 Δ (Day 7): I am satisfied with the job I am doing as a new mother: −1
[8]
  MADRS Concentration Difficulties improvement: 0
  MADRS Concentration Difficulties score: 0
  MADRS Reduced appetite improvement: 0
  MADRS Reduced appetite score: 0
  MADRS Suicidal Thoughts improvement: 0
  MADRS Suicidal Thoughts score: 0
[9]
  BPRS Blunted Affect score: 1
  BPRS Blunted affect improvement: 0
  BPRS Conceptual disorganization improvement: 0
  BPRS Conceptual disorganization score: 1
  BPRS Disorientation improvement: 0
  BPRS Disorientation score: 1
  BPRS Grandiosity improvement: 0
  BPRS Grandiosity score: 1
  BPRS Hallucinatory behaviour improvement: 0
  BPRS Hallucinatory behaviour score: 1
  BPRS Hostility improvement: 0
  BPRS Hostility score: 1
  BPRS Mannerisms and Posturing improvement: 0
  BPRS Mannerisms and Posturing score: 1
  BPRS Motor retardation improvement: 0
  BPRS Motor retardation score: 1
  BPRS Suspiciousness improvement: 0
  BPRS Suspiciousness score: 1
  BPRS Uncooperativeness improvement: 0
  BPRS Uncooperativeness score: 1
  BPRS Unusual Thought Content improvement: 0
  BPRS Unusual Thought Content score: 1
[10]
  BPRS Excitement improvement: 1
  BPRS Excitement score: 1
[11]
  MADRS Inability to Feel improvement: 3
  MADRS Inability to Feel score: 0
  MADRS Lassitude improvement: 3
[12]
  MADRS Pessimistic Thoughts improvement: 4
  MADRS Pessimistic Thoughts score: 0
  MADRS Reported sadness improvement: 4
  MADRS Reported sadness score: 0
[13]
  BPRS Emotional Withdrawal score: 1
  BPRS Emotional withdrawal improvement: 4
  MADRS Apparent sadness improvement: 5
  MADRS Apparent sadness score: 0
  MADRS Inner Tension improvement: 5
  MADRS Inner Tension score: 0
